According to US20230399314A1, “CD73 INHIBITOR AND USE THEREOF” (WUHAN HUMANWELL INNOVATIVE DRUG RESEARCH AND DEVELOPMENT …, priority 2020, published 2023):

Key:
[1] = biological target: CD73 bound to the surfaces of A375 cells (Homo sapiens (Human), UniProt P21589); assay: Inhibitory activity to CD73 enzyme bound to the surfaces of human melanoma A375 cells; assay type: cell-based; conditions: AMP 200 μM, 16 h
Experimental: The compound was diluted with serum-free DMEM to form a stock solution (5×) of an appropriate concentration gradient, the compound solution was added to the cells in the above 96-well plate according to 20 μL/well, and the mixture was placed in an incubator and pre-incubated for 30 min.
(§1) A375-bound CD73 inhibition rates of the compound at different concentrations were calculated according to the following formula, the concentration of the compound was taken as the X-axis, the inhibition rate was taken as the Y-axis, and an IC50 value of the compound in inhibiting A375-bound CD73 was calculated by using Prism software.

[2] = Plasma protein binding by equilibrium dialysis, human plasma; assay type: in vitro ADME; conditions: 37° C.
Experimental: (§2) Plasma protein binding rates of the compounds were detected by equilibrium dialysis (HTDialysis, HTD 96b). The compound was diluted with DMSO to form a 0.5 mM stock solution, and the stock solution was diluted 25 times with a 0.05 M sodium phosphate buffer to form a 20 μM working solution. Plasma was placed in a new 96-well plate according to 380 μL/well, then the working solution was added to and uniformly mixed with the plasma according to 20 μL/well, the final concentration of the compound was 1 μM, and each well contained 0.2% DMSO.
(§3) 100 μL of 0.05 M sodium phosphate buffer was added to a receiving side of each dialysis chamber (HTD 96b), and 100 μL of plasma containing the compound was added to a supply side. The dialysis apparatus was closed with a plastic lid, and incubated with shaking at 37° C. for 5 h.
(§4) After the incubation was completed, 25 μL of sample was collected respectively from the supply side and the receiving side of the dialysis chamber, and placed in a new 96-well plate, an equal volume of blank plasma was added to and uniformly mixed with each sample on the supply side, an equal volume of 0.05 M sodium phosphate buffer was added to and uniformly mixed with each sample on the receiving side. 200 μL of acetonitrile solution containing the internal standard was added to each well, the 96-well plate was vortex-shaken at 600 rpm for 10 min, and centrifuged at 5,594 g for 15 min (Thermo Multifuge×3R), 50 μL of supernatant was transferred to a new 96-well plate, and the sample was mixed with 50 μL of ultrapure water and subjected to LC-MS/MS analysis.
(§5) A plasma protein binding rate and a fraction unbound in plasma were calculated according to the following formulas:
(§6) % binding rate=100×([supply side concentration]5h−[receiving side concentration]5h)/[supply side concentration]5h; and
(§7) % fraction unbound in plasma=100−% binding rate.

[3] = Plasma protein binding by equilibrium dialysis, mouse plasma; assay type: in vitro ADME; conditions: 37° C.
Experimental: as §2, §3, §4, §5, §6, §7

[4] = Plasma protein binding by equilibrium dialysis, canine plasma; assay type: in vitro ADME; conditions: dog, 37° C.
Experimental: as §2, §3, §4, §5, §6, §7

Human CD4+ T cells = assay: Relieving AMP-induced proliferation inhibition of human CD4+ T cells (CCK8); assay type: cell-based; conditions: Homo sapiens, 120 h, AMP 0.3 mM, day 5
Experimental: On day 1 of the experiment, CD4^+ T cells (Allcells Shanghai, PB009-2F-C) were thawed, and inoculated into two replicate wells according to 3×10^4 cells/well and 50 μL/well. The compound was diluted with a complete medium to form a stock solution (4×) of an appropriate concentration gradient, the compound solution was added to the above cells according to 50 μL/well, and the mixture was pre-incubated at 37° C. for 30 min. […] Meanwhile, a positive reference group (Human CD4^+ T+IL-2+CD3/CD28 beads) and a negative reference group (Human CD4^+ T+IL-2+CD3/CD28 beads+AMP) were set. AMP (Sigma; A1752-5G) was diluted with a complete medium to form an AMP solution (4×), the AMP solution was added to the above cells according to 50 μL/well, the final concentration was 0.3 mM, and the mixture was incubated at 37° C. On day 3 of the experiment, the AMP solution was added to the above plate according to 20 μL/well, and the final concentration was 0.3 mM. On day 5, the proliferation of the cells was detected by using a CCK8 kit (DojinDO; CK04).
Inhibition rates of the compound at different concentrations in relieving AMP-induced proliferation inhibition of CD4^+ T cells were calculated according to the following formula, the concentration of the compound was taken as the X-axis, the inhibition rate was taken as the Y-axis, and an EC50 value of the compound in relieving the AMP-induced proliferation inhibition of CD4^+ T cells was calculated by using Prism software.

[5] = Pharmacokinetic test on mice; assay type: in vivo, male ICR mice; conditions: for half-life / AUC(0-t) / Cmax / Tmax / clearance / Vd: male, ICR, plasma, mouse; for AUC(0-t): read-out: AUC0-t; for Cmax: read-out: Cmax; for Tmax: read-out: Tmax; for Vd: read-out: Vz
Experimental: (§8) In a pharmacokinetic test on mice, male ICR mice of 20 g to 25 g were used and fasted overnight. 3 mice were selected for orally intragastric administration (10 mg/kg). Before administration, and 15 min, 30 min, 1 h, 2 h, 4 h, 8 h, and 24 h after administration, blood was sampled from each mouse. Another 3 mice were selected for intravenous injection administration (3 mg/kg), and before administration, and 15 min, 30 min, 1 h, 2 h, 4 h, 8 h, and 24 h after administration, blood was sampled from each mouse. The blood sample was centrifuged at 6,800 g and 2 to 8° C. for 6 min, and plasma was collected and stored at −80° C. The plasma of each time point was vortex-mixed for 1 min with an acetonitrile solution containing the internal standard with a volume 3-5 times that of the plasma of each time point, and centrifuged at 13,000 rpm and 4° C. for 10 min, a supernatant was collected and mixed with water with a volume 3 times that of the supernatant, and an appropriate amount of the mixed solution was used for LC-MS/MS analysis. The main pharmacokinetic parameters were analyzed by using a WinNonlin 7.0 non-compartmental model.

[6] = Pharmacokinetic test on dogs; assay type: in vivo, male Beagle dogs; conditions: for AUC(0-t) / Cmax / Tmax / half-life / clearance / Vd: male, Beagle, plasma, dog; for Vd: read-out: Vz
Experimental: as §8
In a pharmacokinetic test on dogs, male Beagle dogs of 8 to 10 kg were used and fasted overnight. 3 Beagle dogs were selected for orally intragastric administration (5 mg/kg). Another 3 Beagle dogs were selected for intravenous injection administration (1 mg/kg). Other operations were the same as the pharmacokinetic test on mice.

A375 melanoma = assay: In vivo efficacy on A375 melanoma (PBMC + A375 cells in NCG mice); conditions: for Mean ± SEM (tumor size): in mm³ (unit assumed)
Experimental: A375 cells in logarithmic growth phase were collected, cultured in Mitomycin C for 2 h, and washed three times with PBS. After 5 days of co-culture of PBMC and A375 cells, PBMC and freshly digested A375 cells were collected, 5×10^5 PBMC and 4×10^6 A375 cells were inoculated subcutaneously on the right side of NCG mice according to 0.2 mL/mouse (containing 50% Matrigel). After inoculation, the mice were randomly divided into a model group and an administration group according to body weight of the mice, tumor size and animal weight were measured and recorded before and during administration, and tumor sizes of the model group and the administration group were compared after treatment to determine the efficacy.

Human-CD73 enzyme = Human-CD73 enzyme (Homo sapiens (Human), UniProt P21589); assay: In vitro inhibitory activity to recombinant human CD73 enzyme (ATP-GLO); assay type: biochemical; conditions: Human-CD73 0.1 μg/mL, AMP 100 μM
Experimental: Human-CD73 (Novoprotein; C446) was diluted with Tris-MgCl2 buffer to form a stock solution (3×), which was placed in a 96-well plate according to 20 μL/well to obtain a final concentration of 0.1 μg/mL. The compound was diluted with Tris-MgCl2 buffer to form a stock solution (3×) of an appropriate concentration gradient, the compound solution was added to the above 96-well plate according to 20 μL/well and uniformly mixed with the Human-CD73 solution, and the mixture was incubated at the room temperature for 30 min. Meanwhile, a positive reference group (without the compound) and a negative reference group (without CD73) were set. AMP (Sigma; A1752-5G) was diluted with Tris-MgCl2 buffer to form a stock solution (3×), which was added to the above 96-well plate according to 20 μL/well to obtain a final concentration of 100 μM, and the mixture was uniformly mixed and incubated at 37° C. for 60 min; ATP (Sigma; A7699-1G) was diluted with Tris-MgCl2 buffer to form a stock solution (7×), which was added to the above 96-well plate according to 10 μL/well to obtain a final concentration of 100 μM, and the mixture was uniformly mixed, incubated for 5 min, and tested by using an ATP-GLO kit (Promega; G7573).
as §1, with “Human-CD73” for “A375-bound CD73”

[7] = po, orally intragastric 10 mg/kg
[8] = po, orally intragastric 5 mg/kg
[9] = compound 40 mg/kg + anti PD-1 10 mg/kg

Chain of CD73 bound to the surfaces of A375 cells (P21589 27-574): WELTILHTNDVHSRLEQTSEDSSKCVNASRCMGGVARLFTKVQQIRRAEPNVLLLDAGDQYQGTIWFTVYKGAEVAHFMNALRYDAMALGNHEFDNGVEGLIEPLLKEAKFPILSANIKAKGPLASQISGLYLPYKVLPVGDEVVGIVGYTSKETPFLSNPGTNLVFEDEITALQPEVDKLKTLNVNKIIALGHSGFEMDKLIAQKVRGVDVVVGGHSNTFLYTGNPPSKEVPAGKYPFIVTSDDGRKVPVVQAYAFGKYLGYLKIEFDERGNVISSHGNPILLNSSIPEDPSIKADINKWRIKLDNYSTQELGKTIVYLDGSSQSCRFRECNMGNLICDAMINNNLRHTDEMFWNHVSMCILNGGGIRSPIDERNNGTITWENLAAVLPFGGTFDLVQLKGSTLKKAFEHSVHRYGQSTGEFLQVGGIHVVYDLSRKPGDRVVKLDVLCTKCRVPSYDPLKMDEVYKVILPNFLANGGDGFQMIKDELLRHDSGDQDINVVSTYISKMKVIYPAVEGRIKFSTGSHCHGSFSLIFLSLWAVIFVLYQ
Chain of Human-CD73 enzyme (P21589 27-574): as above

| IC50 [1] | fraction unbound at 5 h, 1 μM [2] | fraction unbound at 5 h, 1 μM [3] | fraction unbound at 5 h, 1 μM [4] | half-life [5, 7] | AUC(0-t) [5, 7] | Cmax [5, 7] | Tmax [5, 7] | AUC(0-t) [6, 8] | Cmax [6, 8] | Tmax [6, 8] | half-life [6, 8] | AUC(0-t) ([6]; intravenous injection 1 mg/kg) | clearance ([6]; intravenous injection 1 mg/kg) | half-life ([6]; intravenous injection 1 mg/kg) | Vd ([6]; intravenous injection 1 mg/kg) | clearance ([5]; intravenous injection 3 mg/kg) | half-life ([5]; intravenous injection 3 mg/kg) | AUC(0-t) ([5]; intravenous injection 3 mg/kg) | Compound | EC50 (Human CD4+ T cells) | other results |
| --- | --- | --- | --- | --- | --- | --- | --- | --- | --- | --- | --- | --- | --- | --- | --- | --- | --- | --- | --- | --- | --- |
| 30.7 nM | 0.274 | 0.474 | 0.245 | 3.31 h | 5720 ng·h/mL | 4300 ng/mL | 0.42 h | 16900 ng·h/mL | 5480 ng/mL | 1.17 h | 2.67 h | 1460 ng·h/mL | 12.2 mL/min/kg | 0.94 h | 0.99 L/kg | – | – | – | O=c1[nH]cc(-c2cc([C@H]3C[C@@H]3CF)c(Cl)nn2)c(=O)[nH]1 [Compound 1, 5-(6-chloro-5-((1S,2S)-2-(fluoromethyl)cyclopropyl)pyridazin-3-yl)pyrimidine-2,4(1H,3H)-dione] | 71.9 nM | % TGI (A375 melanoma; [9]): 63.68%; Mean ± SEM (tumor size) (A375 melanoma; [9]): 713.7 ± 89.22 |
| 134 nM | – | – | – | 2.85 h | 185000 ng·h/mL | 16100 ng/mL | 3 h | 65700 ng·h/mL | 7550 ng/mL | 1.17 h | 4.13 h | 5810 ng·h/mL | 3 mL/min/kg | 3.63 h | 0.95 L/kg | 3.33 mL/min/kg | 3.68 h | 15200 ng·h/mL | O=c1[nH]cc(-c2cc([C@@H]3C[C@H]3C(F)(F)F)c(Cl)nn2)c(=O)[nH]1 [Compound 4, 5-(6-chloro-5-((1R,2R)-2-(trifluoromethyl)cyclopropyl)pyridazin-3-yl)pyrimidine-2,4(1H,3H)-dione] | 1070 nM | IC50 (Human-CD73 enzyme): 58.4 nM; Vd ([5]; intravenous injection 3 mg/kg): 1.05 L/kg; pharmacokinetic properties compared to the reference compounds ([5]; mice): significantly improved; exposure compared to the reference compounds ([6]; dogs): much higher |
| – | – | – | – | – | – | – | – | – | – | – | – | – | – | – | – | – | – | – | Toripalimab [anti PD-1] | – | % TGI (A375 melanoma; anti PD-1 10 mg/kg alone): 25.08%; Mean ± SEM (tumor size) (A375 melanoma; anti PD-1 10 mg/kg alone): 1472 ± 194.9 |
| 67.3 nM | 0.098 | 0.261 | 0.177 | 1.09 h | 5380 ng·h/mL | 4540 ng/mL | 0.42 h | 9000 ng·h/mL | 3620 ng/mL | 0.5 h | 3.3 h | 1560 ng·h/mL | 10.8 mL/min/kg | 1.37 h | 1.33 L/kg | 22 mL/min/kg | 1.25 h | 2360 ng·h/mL | O=c1[nH]cc(-c2cc([C@H]3C[C@@H]3C(F)F)c(Cl)nn2)c(=O)[nH]1 [Reference compound 2, 5-(6-chloro-5-((1S,2S)-2-(difluoromethyl)cyclopropyl)pyridazin-3-yl)pyrimidine-2,4(1H,3H)-dione, reference compound] | 93.7 nM | IC50 (Human-CD73 enzyme): 16.8 nM; Vd ([5]; intravenous injection 3 mg/kg): 2.4 L/kg |
| – | 0.103 | 0.122 | 0.126 | 1.19 h | 1270 ng·h/mL | 1270 ng/mL | 0.33 h | 1540 ng·h/mL | 1200 ng/mL | 0.42 h | 0.93 h | 512 ng·h/mL | 36 mL/min/kg | 0.39 h | 1.14 L/kg | 70 mL/min/kg | 0.28 h | 730 ng·h/mL | Cc1nnc(-c2c[nH]c(=O)[nH]c2=O)cc1[C@H]1C[C@@H]1C(C)C [Reference compound 3, 5-(5-((1S,2R)-2-isopropylcyclopropyl)-6-methylpyridazin-3-yl)pyrimidine-2,4(1H,3H)-dione, reference compound] | 341 nM | Vd ([5]; intravenous injection 3 mg/kg): 1.67 L/kg; % TGI (A375 melanoma; [9]): 41.52%; Mean ± SEM (tumor size) (A375 melanoma; [9]): 1149 ± 167.8 |
